# Assay results from PubChem BioAssay (NCI).
#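 A five-concentration, 48-hour dose response in 96-well plates underlies each endpoint, interpolated linearly between surrounding concentrations. Here, GI50 denotes the concentration required for 50% inhibition of growth. The concentration for full growth arrest is given as TGI.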
# Legend:
# Assay in all cases: NCI-60 cell line screen, 48 h
# [1] = tested on: 786-0 renal
# [2] = tested on: A498 renal
# [3] = tested on: A549 NSCLC
# [4] = tested on: ACHN renal
# [5] = tested on: BT-549 breast
# [6] = tested on: CAKI-1 renal
# [7] = tested on: CCRF-CEM leukemia
# [8] = tested on: COLO 205 colon
# [9] = tested on: DU-145 prostate
# [10] = tested on: EKVX NSCLC
# [11] = tested on: HCC-2998 colon
# [12] = tested on: HCT-116 colon
# [13] = tested on: HCT-15 colon
# [14] = tested on: HL-60(TB) leukemia
# [15] = tested on: HOP-62 NSCLC
# [16] = tested on: HS 578T breast
# [17] = tested on: HT29 colon
# [18] = tested on: IGROV1 ovarian
# [19] = tested on: K-562 leukemia
# [20] = tested on: KM12 colon
# [21] = tested on: LOX IMVI melanoma
# [22] = tested on: M14 melanoma
# [23] = tested on: MALME-3M melanoma
# [24] = tested on: MCF7 breast
# [25] = tested on: MDA-MB-231 breast
# [26] = tested on: MDA-MB-435
# [27] = tested on: MOLT-4 leukemia
# [28] = tested on: NCI-H226 lung
# [29] = tested on: NCI-H23 lung
# [30] = tested on: NCI-H460 lung
# [31] = tested on: NCI-H522 lung
# [32] = tested on: NCI/ADR-RES ovarian
# [33] = tested on: OVCAR-3 ovarian
# [34] = tested on: OVCAR-4 ovarian
# [35] = tested on: OVCAR-5 ovarian
# [36] = tested on: OVCAR-8 ovarian
# [37] = tested on: PC-3 prostate
# [38] = tested on: RPMI-8226 leukemia
# [39] = tested on: RXF 393 renal
# [40] = tested on: SF-268 CNS
# [41] = tested on: SF-295 CNS
# [42] = tested on: SF-539 CNS
# [43] = tested on: SK-MEL-2 melanoma
# [44] = tested on: SK-MEL-28 melanoma
# [45] = tested on: SK-MEL-5 melanoma
# [46] = tested on: SK-OV-3 ovarian
# [47] = tested on: SN12C renal
# [48] = tested on: SNB-19 CNS
# [49] = tested on: SNB-75 CNS
# [50] = tested on: SR leukemia
# [51] = tested on: SW-620 colon
# [52] = tested on: T-47D breast
# [53] = tested on: TK-10 renal
# [54] = tested on: U251 CNS
# [55] = tested on: UACC-257 melanoma
# [56] = tested on: UACC-62 melanoma
# [57] = tested on: UO-31 renal
# [58] = tested on: HOP-92 NSCLC
smiles,measurement,setting,value
CC(=O)C1=C(O)C=C2Oc3c(C(=O)/C=C/c4c(Cl)cccc4Cl)c(O)c(C)c(O)c3[C@]2(C)C1=O,GI50,[1],1710 nM
same,TGI,[1],5440 nM
same,GI50,[2],1600 nM
same,TGI,[2],3660 nM
same,GI50,[3],1580 nM
same,TGI,[3],5530 nM
same,GI50,[4],1640 nM
same,TGI,[4],8070 nM
same,GI50,[5],1430 nM
same,TGI,[5],5280 nM
same,GI50,[6],832 nM
same,TGI,[6],8920 nM
same,GI50,[7],573 nM
same,TGI,[7],5430 nM
same,GI50,[8],2340 nM
same,TGI,[8],5250 nM
same,GI50,[9],966 nM
same,TGI,[9],6310 nM
same,GI50,[10],1630 nM
same,TGI,[10],7240 nM
same,GI50,[11],2570 nM
same,TGI,[11],5260 nM
same,GI50,[12],536 nM
same,TGI,[12],2700 nM
same,GI50,[13],668 nM
same,TGI,[13],2940 nM
same,GI50,[14],849 nM
same,TGI,[14],7080 nM
same,GI50,[15],1580 nM
same,TGI,[15],5080 nM
same,GI50,[16],2390 nM
same,TGI,[16],7860 nM
same,GI50,[17],1730 nM
same,TGI,[17],6230 nM
same,GI50,[18],1560 nM
same,TGI,[18],9370 nM
same,GI50,[19],619 nM
same,TGI,[19],15000 nM
same,GI50,[20],1150 nM
same,TGI,[20],3990 nM
same,GI50,[21],1130 nM
same,TGI,[21],3640 nM
same,GI50,[22],961 nM
same,TGI,[22],3830 nM
same,GI50,[23],2100 nM
same,TGI,[23],4960 nM
same,GI50,[24],436 nM
same,TGI,[24],2750 nM
same,GI50,[25],1300 nM
same,TGI,[25],5720 nM
same,GI50,[26],1810 nM
same,TGI,[26],3820 nM
same,GI50,[27],666 nM
same,TGI,[27],8570 nM
same,GI50,[28],2470 nM
same,TGI,[28],5140 nM
same,GI50,[29],1230 nM
same,TGI,[29],5820 nM
same,GI50,[30],1170 nM
same,TGI,[30],4460 nM
same,GI50,[31],460 nM
same,TGI,[31],2770 nM
same,GI50,[32],786 nM
same,TGI,[32],5210 nM
same,GI50,[33],1120 nM
same,TGI,[33],4220 nM
same,GI50,[34],3190 nM
same,TGI,[34],11300 nM
same,GI50,[35],3090 nM
same,TGI,[35],8130 nM
same,GI50,[36],533 nM
same,TGI,[36],2060 nM
same,GI50,[37],596 nM
same,TGI,[37],2490 nM
same,GI50,[38],500 nM
same,TGI,[38],1770 nM
same,GI50,[39],2320 nM
same,TGI,[39],5030 nM
same,GI50,[40],856 nM
same,TGI,[40],3730 nM
same,GI50,[41],634 nM
same,TGI,[41],3170 nM
same,GI50,[42],2190 nM
same,TGI,[42],4910 nM
same,GI50,[43],640 nM
same,TGI,[43],2870 nM
same,GI50,[44],1320 nM
same,TGI,[44],3830 nM
same,GI50,[45],1500 nM
same,TGI,[45],3750 nM
same,GI50,[46],2570 nM
same,TGI,[46],7400 nM
same,GI50,[47],527 nM
same,TGI,[47],1760 nM
same,GI50,[48],1080 nM
same,TGI,[48],5930 nM
same,GI50,[49],2120 nM
same,TGI,[49],4760 nM
same,GI50,[50],1520 nM
same,TGI,[50],7700 nM
same,GI50,[51],640 nM
same,TGI,[51],3130 nM
same,GI50,[52],380 nM
same,TGI,[52],2410 nM
same,GI50,[53],728 nM
same,TGI,[53],5170 nM
same,GI50,[54],754 nM
same,TGI,[54],4090 nM
same,GI50,[55],2010 nM
same,TGI,[55],6820 nM
same,GI50,[56],677 nM
same,TGI,[56],2800 nM
same,GI50,[57],1920 nM
same,TGI,[57],7590 nM
Nc1c(C(=O)Nc2cccc(F)c2)sc2nc3c(cc12)C(=O)CCC3,GI50,[1],595 nM
same,TGI,[1],> 100000 nM
same,GI50,[2],27.4 nM
same,TGI,[2],> 100000 nM
same,GI50,[3],378 nM
same,TGI,[3],> 100000 nM
same,GI50,[4],842 nM
same,TGI,[4],> 100000 nM
same,GI50,[5],3710 nM
same,TGI,[5],> 100000 nM
same,GI50,[6],387 nM
same,TGI,[6],> 100000 nM
same,GI50,[7],341 nM
same,TGI,[7],> 100000 nM
same,GI50,[8],273 nM
same,TGI,[8],751 nM
same,GI50,[9],354 nM
same,TGI,[9],> 100000 nM
same,GI50,[11],1010 nM
same,TGI,[11],> 100000 nM
same,GI50,[12],447 nM
same,TGI,[12],> 100000 nM
same,GI50,[13],298 nM
same,TGI,[13],> 100000 nM
same,GI50,[14],322 nM
same,TGI,[14],> 100000 nM
same,GI50,[15],685 nM
same,TGI,[15],> 100000 nM
same,GI50,[58],589 nM
same,TGI,[58],> 100000 nM
same,GI50,[16],634 nM
same,TGI,[16],> 100000 nM
same,GI50,[17],307 nM
same,TGI,[17],> 100000 nM
same,GI50,[18],3020 nM
same,TGI,[18],> 100000 nM
same,GI50,[19],160 nM
same,TGI,[19],> 75000 nM
same,GI50,[20],384 nM
same,TGI,[20],> 100000 nM
same,GI50,[21],772 nM
same,TGI,[21],> 100000 nM
same,GI50,[22],397 nM
same,TGI,[22],> 100000 nM
same,GI50,[23],377 nM
same,TGI,[23],> 100000 nM
same,GI50,[24],304 nM
same,TGI,[24],> 100000 nM
same,GI50,[25],1670 nM
same,TGI,[25],> 75200 nM
same,GI50,[27],21900 nM
same,TGI,[27],> 100000 nM
same,GI50,[28],> 90100 nM
same,TGI,[28],> 100000 nM
same,GI50,[29],608 nM
same,TGI,[29],> 100000 nM
same,GI50,[30],356 nM
same,TGI,[30],> 100000 nM
same,GI50,[31],371 nM
same,TGI,[31],> 100000 nM
same,GI50,[32],487 nM
same,TGI,[32],> 100000 nM
same,GI50,[33],351 nM
same,TGI,[33],> 100000 nM
same,GI50,[34],> 55100 nM
same,TGI,[34],> 100000 nM
same,GI50,[35],2240 nM
same,TGI,[35],> 100000 nM
same,GI50,[36],31100 nM
same,TGI,[36],> 100000 nM
same,GI50,[37],347 nM
same,TGI,[37],> 100000 nM
same,GI50,[38],> 34500 nM
same,TGI,[38],> 100000 nM
same,GI50,[39],248 nM
same,GI50,[40],37000 nM
same,TGI,[40],> 100000 nM
same,GI50,[41],245 nM
same,TGI,[41],> 80000 nM
same,GI50,[42],287 nM
same,TGI,[42],> 100000 nM
same,GI50,[43],492 nM
same,TGI,[43],> 81600 nM
same,GI50,[44],20500 nM
same,TGI,[44],> 100000 nM
same,GI50,[45],391 nM
same,TGI,[45],> 100000 nM
same,GI50,[46],436 nM
same,TGI,[46],> 100000 nM
same,GI50,[47],743 nM
same,TGI,[47],> 100000 nM
same,GI50,[48],29500 nM
same,TGI,[48],> 100000 nM
same,GI50,[49],339 nM
same,TGI,[49],> 56500 nM
same,GI50,[50],481 nM
same,TGI,[50],> 70600 nM
same,GI50,[51],350 nM
same,TGI,[51],> 100000 nM
same,TGI,[52],> 100000 nM
same,GI50,[53],> 100000 nM
same,TGI,[53],> 100000 nM
same,GI50,[54],488 nM
same,TGI,[54],> 69000 nM
same,GI50,[56],491 nM
same,TGI,[56],> 100000 nM
same,TGI,[57],> 100000 nM
